Results: patent US20220347168A1, “LUNG TARGETED ANTICANCER THERAPIES WITH LIPOSOMAL ANNAMYCIN” (Board of Regents, The University of Texas System, priority 2019, published 2022)

Tests used:
[1] = target: P-glycoprotein 1 (P-gp) (Homo sapiens, UniProt P08183); details: earlier studies; cited from earlier work
[2] = test system: multidrug resistant (MDR) cell lines; details: earlier studies; cited from earlier work
[3] = Pharmacokinetic and organ distribution studies of Annamycin and L-Annamycin; assay type: in vivo; details: CD-1, mouse, lung and plasma, intravenous, 4 mg/kg; AUC, 24 h; read-out: Annamycin levels (AUC, 24 h) in lungs relative to plasma

Chain of P-glycoprotein 1 (P-gp) (P08183 whole entry, species assumed): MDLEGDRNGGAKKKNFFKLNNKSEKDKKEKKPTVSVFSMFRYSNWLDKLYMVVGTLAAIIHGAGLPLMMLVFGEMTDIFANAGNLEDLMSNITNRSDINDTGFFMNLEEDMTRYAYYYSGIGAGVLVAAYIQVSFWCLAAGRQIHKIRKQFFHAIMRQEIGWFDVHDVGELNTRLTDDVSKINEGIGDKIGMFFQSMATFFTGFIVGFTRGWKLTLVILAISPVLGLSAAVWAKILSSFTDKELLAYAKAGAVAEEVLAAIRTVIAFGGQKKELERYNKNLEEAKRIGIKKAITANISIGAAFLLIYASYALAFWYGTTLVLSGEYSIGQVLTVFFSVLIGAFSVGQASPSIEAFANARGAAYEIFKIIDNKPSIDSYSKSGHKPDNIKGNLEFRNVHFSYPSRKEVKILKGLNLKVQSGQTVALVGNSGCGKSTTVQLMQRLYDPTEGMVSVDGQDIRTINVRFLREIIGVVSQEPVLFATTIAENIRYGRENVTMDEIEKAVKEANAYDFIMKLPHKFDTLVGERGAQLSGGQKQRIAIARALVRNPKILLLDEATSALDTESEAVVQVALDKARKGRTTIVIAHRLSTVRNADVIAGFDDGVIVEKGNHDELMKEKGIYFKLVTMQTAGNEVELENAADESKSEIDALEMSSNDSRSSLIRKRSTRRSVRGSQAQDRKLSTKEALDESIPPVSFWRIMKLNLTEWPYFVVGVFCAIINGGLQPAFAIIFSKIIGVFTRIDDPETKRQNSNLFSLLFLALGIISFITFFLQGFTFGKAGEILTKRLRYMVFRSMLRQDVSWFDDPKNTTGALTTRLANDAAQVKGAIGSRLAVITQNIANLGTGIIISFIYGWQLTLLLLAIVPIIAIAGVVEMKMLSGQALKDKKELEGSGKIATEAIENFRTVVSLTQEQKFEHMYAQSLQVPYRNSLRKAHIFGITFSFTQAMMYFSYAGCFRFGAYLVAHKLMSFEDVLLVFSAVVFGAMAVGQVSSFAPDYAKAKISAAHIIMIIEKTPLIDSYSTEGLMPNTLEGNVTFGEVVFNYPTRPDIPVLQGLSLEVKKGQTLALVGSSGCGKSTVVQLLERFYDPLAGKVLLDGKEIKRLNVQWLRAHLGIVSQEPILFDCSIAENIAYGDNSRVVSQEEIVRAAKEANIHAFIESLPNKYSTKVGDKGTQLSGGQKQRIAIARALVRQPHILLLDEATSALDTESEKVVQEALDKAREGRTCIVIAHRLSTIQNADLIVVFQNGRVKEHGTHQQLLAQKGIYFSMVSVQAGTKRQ

- Kp [3]: > 10
SMILES: C[C@@H]1O[C@@H](O[C@H]2C[C@](O)(C(=O)CO)Cc3c(O)c4c(c(O)c32)C(=O)c2ccccc2C4=O)[C@H](I)[C@H](O)[C@H]1O [Annamycin, (7S,9S)-7-(((2R,3R,4R,5R,6S)-4,5-dihydroxy-3-iodo-6-methyltetrahydro-2H-pyran-2-yl)oxy)-6,9,11-trihydroxy-9-(2-hydroxyacetyl)-7,8,9,10-tetrahydrotetracene-5,12-dione]
- substrate for P-glycoprotein 1 (P-gp) [1]: poor substrate
- cross-resistance with doxorubicin (DOX) [2]: not cross-resistant
